Data reported in patent US20100184853A1, “TERPENES WITH ANTIFUNGAL ACTIVITY AGAINST MALASSEZIA YEASTS” (INSTITUTO BIOMAR, S.A., priority 2007, published 2010).

tested on: Malassezia furfur CBS 1878; assay: Antifungal disk diffusion susceptibility test; type: cell-based; settings: 15 nmol per 6 mm paper disc; ML2 plates; two days at 30° C.
Method: Antifungal activity was tested against Malassezia furfur CBS 1878.
Malassezia furfur was grown on ML2 agar plates containing potato dextrose agar 4.2%, ox bile 0.8%, glycerol 1% (v:v), olive oil 1% (v:v), tween 60 0.5% (v:v) for two days, at 30° C., as stock culture.
An area of 2 cm^2 of a growing plate of Malassezia furfur stock culture was scraped using a sterile loop. Biomass was homogenated in 1 ml glycerol 20%. A volume of 100 μl of the glycerol homogenate was spread on testing ML2 plates.
Each test compound was dissolved in distilled water and added on blank paper discs (6 mm, diameter) on the inoculated plates. Plates were incubated for two days at 30° C. Inhibition circles around the discs (halo) were used as activity measure.
Ketoconazol was used as inhibition control.
The test was carried out at 15 nmol for each compound. Antifungal activities are shown at table 1.

| SMILES | Halo (inhibition circle around the disc) |
| --- | --- |
| COC1C(=O)CCC(O)(CCl)C1(O)C1(C)OC1CC=C(C)C (stereo not shown) [Chlovalicin] | 35 mm |
| CO[C@@H]1[C@H](OC(=O)/C=C/C=C/C=C/C=C/C(=O)O)CC[C@]2(CO2)[C@H]1[C@@]1(C)O[C@@H]1CC=C(C)C [Fumagillin] | 27 mm |
| CC(=O)N1CCN(c2ccc(OCC3COC(Cn4ccnc4)(c4ccc(Cl)cc4Cl)O3)cc2)CC1 (stereo not shown) [Ketoconazol] | 23 mm |
| CO[C@@H]1C(=O)CC[C@]2(CO2)[C@@]1(O)[C@@]1(C)O[C@@H]1CC=C(C)C [Ovalicin] | 46 mm |
